Assay results as given in ChEMBL document CHEMBL3885881, “DrugMatrix”.

Species on record: Rattus norvegicus
Test: DrugMatrix - Regimen: Daily Repeat
Format: toxicity, organism-based, Sprague-Dawley
Design: regimen Daily Repeat, gender Male, age 6-8 weeks
Settings: in vivo, po, route oral GAVAGE, vehicle 100 % SALINE; for ABSOLUTE BASOPHIL / ABSOLUTE EOSINOPHIL / ABSOLUTE LYMPHOCYTE / ABSOLUTE MONOCYTE / ABSOLUTE SEGMENTED NEUTROPHIL / BASOPHIL / EOSINOPHIL / ERYTHROCYTE COUNT / HEMATOCRIT / HEMOGLOBIN / LEUKOCYTE COUNT / LYMPHOCYTE / MEAN CORPUSCULAR HEMOGLOBIN / MEAN CORPUSCULAR HEMOGLOBIN CONCENTRATION / MEAN CORPUSCULAR VOLUME / MONOCYTE / NEUTROPHIL / NUCLEATED RED BLOOD CELLS / PLATELET COUNT: tissue Blood; for ALANINE AMINOTRANSFERASE / ALBUMIN / ALKALINE PHOSPHATASE / ASPARTATE AMINOTRANSFERASE / BLOOD UREA NITROGEN / CARBON DIOXIDE / CHLORIDE / CHOLESTEROL / CREATINE PHOSPHOKINASE / CREATININE / GLUCOSE / LACTATE DEHYDROGENASE / LIPASE / PHOSPHORUS / POTASSIUM / SODIUM / TOTAL BILIRUBIN / TOTAL PROTEIN / URIC ACID: tissue Plasma
[1] = 0 mg/kg, 72 h, dose level Control, time 3 day
[2] = 0 mg/kg, 120 h, dose level Control, time 5 day
[3] = 17.5 mg/kg, 72 h, dose level Low, time 3 day
[4] = 17.5 mg/kg, 120 h, dose level Low, time 5 day

NC(=O)C[S+]([O-])C(c1ccccc1)c1ccccc1 (configuration not stated) [MODAFINIL]
ABSOLUTE BASOPHIL [1]: 0 CELLS/uL | ABSOLUTE EOSINOPHIL [1]: 37 CELLS/uL | ABSOLUTE LYMPHOCYTE [1]: 12359.33 CELLS/uL | ABSOLUTE MONOCYTE [1]: 122.67 CELLS/uL | ABSOLUTE SEGMENTED NEUTROPHIL [1]: 847.67 CELLS/uL | BASOPHIL [1]: 0% | EOSINOPHIL [1]: 0.33% | ERYTHROCYTE COUNT [1]: 5.75 x10E6/uL | HEMATOCRIT [1]: 36.08% | HEMOGLOBIN [1]: 14.07 G/DL | LEUKOCYTE COUNT [1]: 13.37 x10E3/uL | LYMPHOCYTE [1]: 92.5% | MEAN CORPUSCULAR HEMOGLOBIN [1]: 24.47 pg | MEAN CORPUSCULAR HEMOGLOBIN CONCENTRATION [1]: 38.98 G/DL | MEAN CORPUSCULAR VOLUME [1]: 62.78 fL | MONOCYTE [1]: 1% | NEUTROPHIL [1]: 6.17% | NUCLEATED RED BLOOD CELLS [1]: 0.17 /100WBC | PLATELET COUNT [1]: 1202.17 x10E3/uL | ALANINE AMINOTRANSFERASE [1]: 50.67 u/L | ALBUMIN [1]: 4.13 G/DL | ALKALINE PHOSPHATASE [1]: 356.33 u/L | ASPARTATE AMINOTRANSFERASE [1]: 78.17 u/L | BLOOD UREA NITROGEN [1]: 14.17 mg/dL | CARBON DIOXIDE [1]: 31.33 mmol/L | CHLORIDE [1]: 98.5 MEQ/L | CHOLESTEROL [1]: 76.5 mg/dL | CREATINE PHOSPHOKINASE [1]: 248.33 u/L | CREATININE [1]: 0.2 mg/dL | GLUCOSE [1]: 144 mg/dL | LACTATE DEHYDROGENASE [1]: 107 u/L | LIPASE [1]: 9.83 u/L | PHOSPHORUS [1]: 12.8 mg/dL | POTASSIUM [1]: 6.75 MEQ/L | SODIUM [1]: 142 MEQ/L | TOTAL BILIRUBIN [1]: 0.18 mg/dL | TOTAL PROTEIN [1]: 5.98 G/DL | URIC ACID [1]: 1.42 mg/dL | ABSOLUTE BASOPHIL [2]: 0 CELLS/uL | ABSOLUTE EOSINOPHIL [2]: 0 CELLS/uL | ABSOLUTE LYMPHOCYTE [2]: 8681.17 CELLS/uL | ABSOLUTE MONOCYTE [2]: 79.83 CELLS/uL | ABSOLUTE SEGMENTED NEUTROPHIL [2]: 689 CELLS/uL | BASOPHIL [2]: 0% | EOSINOPHIL [2]: 0% | ERYTHROCYTE COUNT [2]: 5.49 x10E6/uL | HEMATOCRIT [2]: 33.55% | HEMOGLOBIN [2]: 13.1 G/DL | LEUKOCYTE COUNT [2]: 9.45 x10E3/uL | LYMPHOCYTE [2]: 92.33% | MEAN CORPUSCULAR HEMOGLOBIN [2]: 23.92 pg | MEAN CORPUSCULAR HEMOGLOBIN CONCENTRATION [2]: 39.07 G/DL | MEAN CORPUSCULAR VOLUME [2]: 61.22 fL | MONOCYTE [2]: 0.67% | NEUTROPHIL [2]: 7% | NUCLEATED RED BLOOD CELLS [2]: 0.17 /100WBC | PLATELET COUNT [2]: 1001.17 x10E3/uL | ALANINE AMINOTRANSFERASE [2]: 49.33 u/L | ALBUMIN [2]: 4.07 G/DL | ALKALINE PHOSPHATASE [2]: 300.33 u/L | ASPARTATE AMINOTRANSFERASE [2]: 83.5 u/L | BLOOD UREA NITROGEN [2]: 16 mg/dL | CARBON DIOXIDE [2]: 29.67 mmol/L | CHLORIDE [2]: 100.5 MEQ/L | CHOLESTEROL [2]: 74.33 mg/dL | CREATINE PHOSPHOKINASE [2]: 489.67 u/L | CREATININE [2]: 0.35 mg/dL | GLUCOSE [2]: 151 mg/dL | LACTATE DEHYDROGENASE [2]: 133.67 u/L | LIPASE [2]: 11.17 u/L | PHOSPHORUS [2]: 10.88 mg/dL | POTASSIUM [2]: 5.5 MEQ/L | SODIUM [2]: 145.7 MEQ/L | TOTAL BILIRUBIN [2]: 0.2 mg/dL | TOTAL PROTEIN [2]: 6.05 G/DL | URIC ACID [2]: 0.68 mg/dL | ABSOLUTE BASOPHIL [3]: 0 CELLS/uL | ABSOLUTE EOSINOPHIL [3]: 0 CELLS/uL | ABSOLUTE LYMPHOCYTE [3]: 8269.33 CELLS/uL | ABSOLUTE MONOCYTE [3]: 22 CELLS/uL | ABSOLUTE SEGMENTED NEUTROPHIL [3]: 608.67 CELLS/uL | BASOPHIL [3]: 0% | EOSINOPHIL [3]: 0% | ERYTHROCYTE COUNT [3]: 5.35 x10E6/uL | HEMATOCRIT [3]: 32.93% | HEMOGLOBIN [3]: 12.87 G/DL | LEUKOCYTE COUNT [3]: 8.9 x10E3/uL | LYMPHOCYTE [3]: 93% | MEAN CORPUSCULAR HEMOGLOBIN [3]: 24.07 pg | MEAN CORPUSCULAR HEMOGLOBIN CONCENTRATION [3]: 39.03 G/DL | MEAN CORPUSCULAR VOLUME [3]: 61.67 fL | MONOCYTE [3]: 0.33% | NEUTROPHIL [3]: 6.67% | NUCLEATED RED BLOOD CELLS [3]: 0 /100WBC | PLATELET COUNT [3]: 1018.67 x10E3/uL | ALANINE AMINOTRANSFERASE [3]: 51.33 u/L | ALBUMIN [3]: 4.2 G/DL | ALKALINE PHOSPHATASE [3]: 290.33 u/L | ASPARTATE AMINOTRANSFERASE [3]: 79.67 u/L | BLOOD UREA NITROGEN [3]: 14 mg/dL | CARBON DIOXIDE [3]: 27.67 mmol/L | CHLORIDE [3]: 100.33 MEQ/L | CHOLESTEROL [3]: 66 mg/dL | CREATINE PHOSPHOKINASE [3]: 304.67 u/L | CREATININE [3]: 0.22 mg/dL | GLUCOSE [3]: 157.67 mg/dL | LACTATE DEHYDROGENASE [3]: 92.67 u/L | LIPASE [3]: 11 u/L | PHOSPHORUS [3]: 11.77 mg/dL | POTASSIUM [3]: 5.21 MEQ/L | SODIUM [3]: 144.33 MEQ/L | TOTAL BILIRUBIN [3]: 0.17 mg/dL | TOTAL PROTEIN [3]: 5.93 G/DL | URIC ACID [3]: 0.7 mg/dL | ABSOLUTE BASOPHIL [4]: 0 CELLS/uL | ABSOLUTE EOSINOPHIL [4]: 0 CELLS/uL | ABSOLUTE LYMPHOCYTE [4]: 7020.33 CELLS/uL | ABSOLUTE MONOCYTE [4]: 0 CELLS/uL | ABSOLUTE SEGMENTED NEUTROPHIL [4]: 813 CELLS/uL | BASOPHIL [4]: 0% | EOSINOPHIL [4]: 0% | ERYTHROCYTE COUNT [4]: 5.19 x10E6/uL | HEMATOCRIT [4]: 32.03% | HEMOGLOBIN [4]: 12.9 G/DL | LEUKOCYTE COUNT [4]: 7.83 x10E3/uL | LYMPHOCYTE [4]: 90% | MEAN CORPUSCULAR HEMOGLOBIN [4]: 24.93 pg | MEAN CORPUSCULAR HEMOGLOBIN CONCENTRATION [4]: 40.27 G/DL | MEAN CORPUSCULAR VOLUME [4]: 61.83 fL | MONOCYTE [4]: 0% | NEUTROPHIL [4]: 10% | NUCLEATED RED BLOOD CELLS [4]: 0 /100WBC | PLATELET COUNT [4]: 1105.67 x10E3/uL | ALANINE AMINOTRANSFERASE [4]: 54.33 u/L | ALBUMIN [4]: 4.27 G/DL | ALKALINE PHOSPHATASE [4]: 413 u/L | ASPARTATE AMINOTRANSFERASE [4]: 84 u/L | BLOOD UREA NITROGEN [4]: 11 mg/dL | CARBON DIOXIDE [4]: 33.67 mmol/L | CHLORIDE [4]: 98.33 MEQ/L | CHOLESTEROL [4]: 73 mg/dL | CREATINE PHOSPHOKINASE [4]: 441.67 u/L | CREATININE [4]: 0.39 mg/dL | GLUCOSE [4]: 133 mg/dL | LACTATE DEHYDROGENASE [4]: 119.33 u/L | LIPASE [4]: 10.67 u/L | PHOSPHORUS [4]: 10.57 mg/dL | POTASSIUM [4]: 6.11 MEQ/L | SODIUM [4]: 143.73 MEQ/L | TOTAL BILIRUBIN [4]: 0.13 mg/dL | TOTAL PROTEIN [4]: 6.13 G/DL | URIC ACID [4]: 0.7 mg/dL
